Consider one compound from patent publication US20090233957A1, “(-)-BELOXEPIN AND METHODS FOR ITS SYNTHESIS AND USE” (priority 2008, published 2009).

As a reminder, the Ki is a measure of affinity in units of concentration, obtained from inhibition or displacement. Broadly, the IC50 is the point on the concentration scale where inhibition reaches its midpoint.

The target in assay [1] is T1, cloned human NE transporter (hNET) (Homo sapiens, UniProt P23975).
T1 construct: expressed in transfected cells; host or cells: CHO cells
T1 sequence (P23975 whole entry): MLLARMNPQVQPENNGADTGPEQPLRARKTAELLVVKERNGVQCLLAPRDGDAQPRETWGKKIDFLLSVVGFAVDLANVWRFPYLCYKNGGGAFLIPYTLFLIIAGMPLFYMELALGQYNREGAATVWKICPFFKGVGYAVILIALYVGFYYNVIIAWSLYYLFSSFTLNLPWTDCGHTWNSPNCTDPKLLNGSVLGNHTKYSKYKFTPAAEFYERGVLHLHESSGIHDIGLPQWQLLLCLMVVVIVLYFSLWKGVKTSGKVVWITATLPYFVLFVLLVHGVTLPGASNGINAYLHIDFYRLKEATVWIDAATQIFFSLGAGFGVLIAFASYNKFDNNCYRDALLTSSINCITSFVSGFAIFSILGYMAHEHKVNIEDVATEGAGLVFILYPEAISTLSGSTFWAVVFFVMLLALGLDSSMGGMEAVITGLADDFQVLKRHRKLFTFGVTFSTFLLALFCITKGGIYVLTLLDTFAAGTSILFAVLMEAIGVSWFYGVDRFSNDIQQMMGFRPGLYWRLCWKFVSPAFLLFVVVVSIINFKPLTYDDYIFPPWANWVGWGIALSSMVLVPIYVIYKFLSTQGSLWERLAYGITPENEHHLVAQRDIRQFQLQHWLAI
The assay can be described thus: NE transporter binding assay, [3H]nisoxetine. Conditions: membranes of CHO cells expressing hNET; read-out: NET Ki. The method, then:
Protocols. For the NE transporter binding assay, [^3H]nisoxetine (1.0 nM) was incubated with various concentrations of test compounds for 2 hours at 4° C. with membranes prepared from Chinese hamster ovary cells (CHO) cells heterologously expressing the cloned human NE transporter (hNET). Bound radioactivity was determined by scintillation spectroscopy.

Assay [2] addresses T2, cloned human 5HT2A receptor (Homo sapiens, UniProt P28223).
T2 construct: expressed in transfected cells; host or cells: HEK-293 cells
The assay can be described thus: 5HT2A receptor binding assay, [3H]ketanserin. Conditions: HEK-293 membranes. On the procedure:
For the 5HT2A receptor binding assay, [^3H]ketanserin (0.5 nM) was incubated for 60 min at 22° C. with membranes prepared from HEK-293 cells heterologously expressing the cloned human 5-HT2A receptor according to the method of Bonhaus et al., 1995, Brit. J. Pharmacol. 115:622-628. Various concentrations of test compound were added and bound radioactivity was determined by scintillation counting. Non-specific binding was determined in the presence of 1.0 μM unlabeled ketanserin. The Ki value for the test compound was determined using standard methods.

Assay [3] has as its target T2, cloned human 5HT2A receptor. Briefly: 5HT2A functional assay, intracellular Ca2+ in HEK-293 cells. Type of assay: cell-based. The method, then: (§1) Agonist effects at the 5HT2A receptor were assessed by incubation at 22° C. of a series of concentrations of test compound with intact HEK-293 cells heterologously expressing the cloned human 5HT2A receptor and measuring intracellular [Ca^2+] by fluorimetry according to the method of Jerman et al., 2001, Eur. J. Pharmacol. 414:23-30). Antagonist effects were assessed by the ability of a series of concentrations of test compound to block the increase in intracellular [Ca^2+] that occurred in the presence of 3.0 nM serotonin under the same conditions. EC50 and IC50 values were determined using standard methods.

Assay [4] has as its target T3, cloned human 5HT2C receptor (Homo sapiens, UniProt P28335).
T3 construct: expressed in transfected cells; host or cells: CHO cells
T3 sequence (P28335 33-458): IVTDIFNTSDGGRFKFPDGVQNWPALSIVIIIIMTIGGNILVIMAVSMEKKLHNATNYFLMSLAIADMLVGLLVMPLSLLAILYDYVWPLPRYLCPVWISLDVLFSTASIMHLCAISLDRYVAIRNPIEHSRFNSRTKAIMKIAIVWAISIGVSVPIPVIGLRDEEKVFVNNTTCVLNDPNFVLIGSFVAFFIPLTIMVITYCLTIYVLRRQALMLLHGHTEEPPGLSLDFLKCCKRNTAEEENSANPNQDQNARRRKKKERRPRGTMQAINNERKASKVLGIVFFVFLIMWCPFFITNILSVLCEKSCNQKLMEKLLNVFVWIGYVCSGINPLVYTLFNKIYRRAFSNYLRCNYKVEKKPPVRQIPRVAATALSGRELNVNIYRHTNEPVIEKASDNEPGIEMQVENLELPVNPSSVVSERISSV
The assay can be described thus: 5HT2C receptor binding assay, [3H]mesulergine. Conditions: CHO membranes. On the procedure:
For the 5HT2C receptor binding assay, [^3H]mesulergine (1.0 nM) was incubated for 60 min at 37° C. with membranes prepared from Chinese hamster ovary cells heterologously expressing the cloned human 5-HT2C receptor according to the method of Stam et al., 1994, Eur. J. Pharmacol. 269:339-348. Various concentrations of test compound were added and bound radioactivity was determined by scintillation counting. Non-specific binding was determined in the presence of 10 μM RS102221. The Ki value for the test compound was determined using standard methods.

The target of assay [5] is T3, cloned human 5HT2C receptor. Briefly: 5HT2C functional assay, intracellular Ca2+ in CHO cells. Type of assay: cell-based. On the procedure:
as §1, with “5HT2C” for “5HT2A”, “CHO” for “HEK-293”, “414:23-30.” for “414:23-30).”

The mark [6] stands for this setting: antagonist mode, vs 3.0 nM serotonin.

T2 sequence (P28223 whole entry): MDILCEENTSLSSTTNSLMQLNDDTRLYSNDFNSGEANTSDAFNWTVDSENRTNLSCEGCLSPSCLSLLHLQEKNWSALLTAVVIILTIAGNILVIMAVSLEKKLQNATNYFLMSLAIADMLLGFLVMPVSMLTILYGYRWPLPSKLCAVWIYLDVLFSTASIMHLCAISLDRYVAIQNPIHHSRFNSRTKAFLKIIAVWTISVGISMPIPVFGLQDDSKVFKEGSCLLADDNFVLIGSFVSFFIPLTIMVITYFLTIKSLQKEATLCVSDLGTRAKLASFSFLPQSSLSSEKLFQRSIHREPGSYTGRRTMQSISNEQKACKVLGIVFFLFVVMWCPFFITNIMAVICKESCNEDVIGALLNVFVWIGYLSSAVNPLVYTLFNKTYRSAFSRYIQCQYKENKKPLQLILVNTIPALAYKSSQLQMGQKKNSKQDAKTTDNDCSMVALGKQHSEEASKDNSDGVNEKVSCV

With `Cc1cccc2c1Oc1ccccc1C1(O)CCN(C)CC21` (single isomer, unassigned; (+)) [(+)-beloxepin], the Ki in assay [1] was 2920 nM; in assay [2], 97 nM; in assay [4], 84 nM. Further, the “5HT2A functional activity type” value in assay [3] was “antagonist”. Also, the half-inhibitory concentration (IC50) in assay [3] (setting [6]) amounted to 1600 nM; in assay [5] (setting [6]), 7200 nM. The “5HT2C functional activity type” value in assay [5] was “antagonist”.
